According to patent publication US4232148A, “6-Deoxyneamines” (The Upjohn Company, priority 1979, dated 1980):
In brackets after ≈: the same amount, converted by molar mass. Where two headings read alike, the source gives them in different places.

Tests used:
Format in all cases: cell-based
S. schottmeulleri UC 126 = experiment: standard disc plate assay, zone of inhibition; details: 12.5 mm paper discs
Source text: (§1) The compounds of formulas (V, VII, IX, XI, XIV, XVI, and XIX) are active as antibacterials and can be used in various environments to erradicate or control susceptible microorganisms. Tables I and II set forth the in vitro antibacterial test results for representative compounds of the present invention. The results were obtained with a standard disc plate assay using 12.5 mm paper discs.

S. lutea UC 130 = experiment: standard disc plate assay, zone of inhibition; details: Micrococcus luteus, UC130, read-out: Zones of Inhibition
Source text: as §1

P. vulgaris UC 93 [1] = experiment: standard disc plate assay, zone of inhibition; details: 12.5 mm paper discs
Source text: as §1

Ps. aeruginosa UC 95 [2] = experiment: standard disc plate assay, zone of inhibition; details: 12.5 mm paper discs
Source text: as §1

K. pneumoniae UC 57 = experiment: standard disc plate assay, zone of inhibition; details: 12.5 mm paper discs
Source text: as §1

S. gallinarum UC 265 = experiment: standard disc plate assay, zone of inhibition; details: Salmonella enterica, read-out: Zones of Inhibition
Source text: as §1

B. cereus UC 3145 = experiment: standard disc plate assay, zone of inhibition; details: 12.5 mm paper discs
Source text: as §1

S. aureus UC 80 = experiment: standard disc plate assay, zone of inhibition; details: 12.5 mm paper discs
Source text: as §1

E. coli UC 51 = experiment: standard disc plate assay, zone of inhibition; details: 12.5 mm paper discs
Source text: as §1

B. subtilis UC 564 = experiment: standard disc plate assay, zone of inhibition; details: 12.5 mm paper discs
Source text: as §1

S. pneumoniae I UC 41 = experiment: standard microplate test in BHI Agar, MIC; details: Streptococcus pneumoniae, UC41, 37°, 20 hours, read-out: Minimum Inhibitory Concentration
Experimental: (§2) The compounds VII, XI, XVβ, XVα and XVI were tested in a standard microplate test in BHI (Brain Heart Infusion) Agar at a concentration of 1 mg./ml. and dilutions thereof at 37° incubation temperature. The end points are read at 20 hours. BHI Agar is supplied by Difco Laboratories, Detroit, Mich., U.S.A. and has the following compositions:
(§3) Calf brains, infusion from: 200 gm.
(§4) Beef heart, infusion from: 250 gm.
(§5) Bacto Proteose-peptone, Difco: 10 gm.
(§6) Bacto-Dextrose, Difco: 1 gm.
(§7) Disodium phosphate: 2.5 gm.

S. faecalis UC 694 = experiment: standard microplate test in BHI Agar, MIC; details: Enterococcus faecalis, UC694, 20 h
Experimental: as §2, §3, §4, §5, §6, §7

S. typhi UC 215 = experiment: standard microplate test in BHI Agar, MIC; details: Salmonella enterica, BHI Agar, 37°, 20 hours
Experimental: as §2, §3, §4, §5, §6, §7

P. vulgaris UC 93 [3] = experiment: standard microplate test in BHI Agar, MIC; details: Proteus vulgaris, UC93, 37°, 20 hours
Experimental: as §2, §3, §4, §5, §6, §7

Ps. aeruginosa UC 95 [4] = experiment: standard microplate test in BHI Agar, MIC; details: Pseudomonas aeruginosa, UC95, 20 h
Experimental: as §2, §3, §4, §5, §6, §7

P. rettgeri UC 339 = experiment: standard microplate test in BHI Agar, MIC; details: Providencia rettgeri, UC339, 20 h
Experimental: as §2, §3, §4, §5, §6, §7

S. pyogenes UC 152 = experiment: standard microplate test in BHI Agar, MIC; details: Streptococcus pyogenes, UC152, 20 h
Experimental: as §2, §3, §4, §5, §6, §7

E. coli UC 45 = experiment: standard microplate test in BHI Agar, MIC; details: Escherichia coli, UC45, 37°, 20 hours, read-out: Minimum Inhibitory Concentration
Experimental: as §2, §3, §4, §5, §6, §7

P. morganii UC 3186 = experiment: standard microplate test in BHI Agar, MIC; details: Morganella morganii, UC3186, 20 h
Experimental: as §2, §3, §4, §5, §6, §7

E. coli UC 311 = experiment: standard microplate test in BHI Agar, MIC; details: Escherichia coli, UC311, 20 h, read-out: Minimal Inhibitory Concentration
Experimental: as §2, §3, §4, §5, §6, §7

D. pneumoniae UC 41 = experiment: standard microplate test in BHI Agar, MIC; details: Streptococcus pneumoniae, UC41, 37°, 20 hours, read-out: Minimal Inhibitory Concentration
Experimental: as §2, §3, §4, §5, §6, §7

S. flexneri UC 143 = experiment: standard microplate test in BHI Agar, MIC; details: Shigella flexneri, UC143, 37°, 20 hours
Experimental: as §2, §3, §4, §5, §6, §7

S. schottmuelleri UC 126 = experiment: standard microplate test in BHI Agar, MIC; details: 37°, 20 hours
Experimental: as §2, §3, §4, §5, §6, §7

P. mirabilis UC 6671 = experiment: standard microplate test in BHI Agar, MIC; details: Proteus mirabilis, UC6671, 37°, 20 hours
Experimental: as §2, §3, §4, §5, §6, §7

K. pneumoniae UC 58 = experiment: standard microplate test in BHI Agar, MIC; details: Klebsiella pneumoniae, UC58, 20 h
Experimental: as §2, §3, §4, §5, §6, §7

S. aureus UC 76 = experiment: standard microplate test in BHI Agar, MIC; details: Staphylococcus aureus, UC76, 20 h
Experimental: as §2, §3, §4, §5, §6, §7

[5] = read-out: Minimal Inhibitory Concentration
[6] = read-out: Minimum Inhibitory Concentration

**Q.** Which results are given for `NC[C@H]1O[C@H](O[C@H]2[C@H](O)[C@@H](O)[C@H](N)C[C@@H]2N)[C@H](N)[C@@H](O)[C@@H]1O` [Neamine]?
**A.** Zones of Inhibition (S. schottmeulleri UC 126; 0.1 mg/ml): 15 mm; zone of inhibition at 100 µg/mL (S. schottmeulleri UC 126; 0.1 mg/ml, read-out: Zones of Inhibition): 16 mm; Zones of Inhibition (S. schottmeulleri UC 126; 1 mg/ml): 23 mm; zone of inhibition at 1000 µg/mL (S. schottmeulleri UC 126; 1 mg/ml, read-out: Zones of Inhibition): 24 mm; zone of inhibition at 1000 µg/mL (S. lutea UC 130): 17 mm; Zones of Inhibition (P. vulgaris UC 93 [1]; 0.1 mg/ml): 15 mm; Zones of Inhibition (P. vulgaris UC 93 [1]; 1 mg/ml): 28 mm; zone of inhibition at 100 µg/mL (P. vulgaris UC 93 [1]; Proteus vulgaris, UC93, read-out: Zones of Inhibition, 0.1 mg/ml): 18 mm; zone of inhibition at 1000 µg/mL (P. vulgaris UC 93 [1]; Proteus vulgaris, UC93, read-out: Zones of Inhibition, 1 mg/ml): 27 mm; Zones of Inhibition (Ps. aeruginosa UC 95 [2]; 1 mg/ml): 18 mm; zone of inhibition at 1000 µg/mL (Ps. aeruginosa UC 95 [2]; Pseudomonas aeruginosa, UC95, read-out: Zones of Inhibition, 1 mg/ml): 17 mm; Zones of Inhibition (K. pneumoniae UC 57; 0.1 mg/ml): 26 mm; Zones of Inhibition (K. pneumoniae UC 57; 1 mg/ml): 32 mm; zone of inhibition at 100 µg/mL (K. pneumoniae UC 57; Klebsiella pneumoniae, UC57, read-out: Zones of Inhibition, 0.1 mg/ml): 27 mm; zone of inhibition at 1000 µg/mL (K. pneumoniae UC 57; Klebsiella pneumoniae, UC57, read-out: Zones of Inhibition, 1 mg/ml): 34 mm; zone of inhibition at 100 µg/mL (S. gallinarum UC 265): 19 mm; zone of inhibition at 1000 µg/mL (S. gallinarum UC 265): 29 mm; Zones of Inhibition (B. cereus UC 3145; 1 mg/ml): 23 mm; zone of inhibition at 100 µg/mL (B. cereus UC 3145; Bacillus cereus, UC3145, read-out: Zones of Inhibition, 0.1 mg/ml): 15 mm; zone of inhibition at 1000 µg/mL (B. cereus UC 3145; Bacillus cereus, UC3145, read-out: Zones of Inhibition, 1 mg/ml): 24 mm; Zones of Inhibition (S. aureus UC 80; 0.1 mg/ml): 18 mm; Zones of Inhibition (S. aureus UC 80; 1 mg/ml): 26 mm; zone of inhibition at 100 µg/mL (S. aureus UC 80; Staphylococcus aureus, UC80, read-out: Zones of Inhibition, 0.1 mg/ml): 20 mm; zone of inhibition at 1000 µg/mL (S. aureus UC 80; Staphylococcus aureus, UC80, read-out: Zones of Inhibition, 1 mg/ml): 29 mm; Zones of Inhibition (E. coli UC 51; 0.1 mg/ml): 18 mm; Zones of Inhibition (E. coli UC 51; 1 mg/ml): 25 mm; zone of inhibition at 100 µg/mL (E. coli UC 51; Escherichia coli, UC51, read-out: Zones of Inhibition, 0.1 mg/ml): 19 mm; zone of inhibition at 1000 µg/mL (E. coli UC 51; Escherichia coli, UC51, read-out: Zones of Inhibition, 1 mg/ml): 27 mm; Zones of Inhibition (B. subtilis UC 564; 0.1 mg/ml): 28 mm; Zones of Inhibition (B. subtilis UC 564; 1 mg/ml): 37 mm; zone of inhibition at 100 µg/mL (B. subtilis UC 564; Bacillus subtilis, UC564, read-out: Zones of Inhibition, 0.1 mg/ml): 30 mm; zone of inhibition at 1000 µg/mL (B. subtilis UC 564; Bacillus subtilis, UC564, read-out: Zones of Inhibition, 1 mg/ml): 39 mm; MIC (S. pneumoniae I UC 41): 62.5 µg/mL (≈ 194 µM); MIC (S. faecalis UC 694; [5]): > 500 µg/mL; MIC (S. faecalis UC 694; [6]): > 500 µg/mL; MIC (S. typhi UC 215; [5]): 31.2 µg/mL (≈ 96.8 µM); MIC (S. typhi UC 215; [6]): 15.6 µg/mL (≈ 48.4 µM); MIC (P. vulgaris UC 93 [3]; [5]): 62.5 µg/mL (≈ 194 µM); MIC (P. vulgaris UC 93 [3]; [6]): 62.5 µg/mL (≈ 194 µM); MIC (Ps. aeruginosa UC 95 [4]; [5]): > 500 µg/mL; MIC (Ps. aeruginosa UC 95 [4]; [6]): > 500 µg/mL; MIC (P. rettgeri UC 339; [5]): > 500 µg/mL; MIC (P. rettgeri UC 339; [6]): 250 µg/mL (≈ 776 µM); MIC (S. pyogenes UC 152; [5]): 7.8 µg/mL (≈ 24.2 µM); MIC (S. pyogenes UC 152; [6]): 7.8 µg/mL (≈ 24.2 µM); MIC (E. coli UC 45): 62.5 µg/mL (≈ 194 µM); MIC (P. morganii UC 3186; [5]): 31.2 µg/mL (≈ 96.8 µM); MIC (P. morganii UC 3186; [6]): 62.5 µg/mL (≈ 194 µM); MIC (E. coli UC 311): 125 µg/mL (≈ 388 µM); MIC (D. pneumoniae UC 41): 62.5 µg/mL (≈ 194 µM); MIC (S. flexneri UC 143; [5]): 125 µg/mL (≈ 388 µM); MIC (S. flexneri UC 143; [6]): 62.5 µg/mL (≈ 194 µM); MIC (S. schottmuelleri UC 126; [5]): 15.6 µg/mL (≈ 48.4 µM); MIC (S. schottmuelleri UC 126; [6]): 31.2 µg/mL (≈ 96.8 µM); MIC (P. mirabilis UC 6671; [5]): 250 µg/mL (≈ 776 µM); MIC (P. mirabilis UC 6671; [6]): 62.5 µg/mL (≈ 194 µM); MIC (K. pneumoniae UC 58; [5]): 7.8 µg/mL (≈ 24.2 µM); MIC (K. pneumoniae UC 58; [6]): 15.6 µg/mL (≈ 48.4 µM); MIC (S. aureus UC 76; [5]): 7.8 µg/mL (≈ 24.2 µM); MIC (S. aureus UC 76; [6]): 3.9 µg/mL (≈ 12.1 µM)
